SMILES strings stand for the structures.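 Step 1: Grow cells in 96-well plates. Step 2: Expose to compound for 48 hours at 5 concentrations. Step 3: Interpolate endpoints linearly; if unreached, use highest concentration. GI50 marks 50% less growth. TGI: concentration producing complete growth inhibition.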

In this experiment the test system is MDA-MB-468 breast. The experiment in a line: NCI-60 cell line screen, 48 h.

`Cc1cc(S(=O)(=O)/N=C(\N)n2nc(C)c(C)c2C)c(SCc2ccccc2)cc1Cl`: the GI50 is 12100 nM and the TGI stood at 92.4 µM.

Take `Cc1nn(-c2ccccc2)cc1/C=N/Nc1nc(Nc2ccccc2)nc(Nc2ccc(S(N)(=O)=O)cc2)n1`: the GI50 is 1520 nM and the TGI turned out to be 3.27 µM.

On to `CCN(CC)CCCC(C)N/C(c1cccc(OC)c1)=c1\c(=O)[nH]n(-c2c3ccccc3nc3ccccc23)c(=O)\c1=C(/NC(C)CCCN(CC)CC)c1cccc(OC)c1` (stereo not given), for which the GI50 is 1180 nM and the TGI was 3.09 µM.

For the compound `CN1CCN(CCCOc2ccc3ncnc(Nc4ccc(Oc5cccc(C(F)(F)F)c5)c(Cl)c4)c3c2)CC1`, the GI50 is 1070 nM and the TGI came to 2.87 µM.

For the compound `CN(C)c1ccc2[nH]c(O)c(C=Nc3ccc(S(N)(=O)=O)cc3)c2c1`, the GI50 was > 25000 nM and the TGI was > 25 µM.

In the case of `O=C(Nc1cccc(-c2nc3ccccc3[nH]2)c1)c1cccc(NC(=O)c2ccco2)c1`, the GI50 was 1740 nM and the TGI came out at 3.99 µM.

Regarding `C=C1C(=O)O[C@H]2[C@H]1CC/C(COC(=O)NCCc1c[nH]c3ccccc13)=C\CC[C@@]1(C)O[C@@H]21`, the GI50 is 1380 nM and the TGI came to 4.32 µM.

For the compound `C/C(=C\c1ccn(-c2ccc(N)cc2C(F)(F)F)n1)[C@@H]1C[C@@H]2O[C@]2(C)CCC[C@H](C)[C@H](O)[C@@H](C)C(=O)C(C)(C)[C@@H](O)CC(=O)O1`, the GI50 was 289 nM and the TGI was determined as 0.873 µM.

With `Nc1c(C(=O)Nc2cccc3ccccc23)sc2nc3c(cc12)CCCCC3`, the GI50 was 231 nM and the TGI was > 50 µM.

For the compound `CC1=C([Se]CC(OC(=O)[C@@H](CSSC(C)(C)C)NC(=O)C(C)(C)C)C(=O)NCCCCCC(=O)OCc2ccccc2)C(=O)c2ccccc2C1=O` (stereo not given in full), the GI50 is 2190 nM and the TGI worked out at 4.35 µM.

`Nc1nc(N)c2c(n1)NC(c1ccc(C(F)(F)F)cc1)CC(c1ccc(Nc3nc(NCCO)nc(Nc4ccc(Cl)cc4)n3)cc1)=N2` (stereo not given): the GI50 is 1580 nM and the TGI came out at 3.21 µM.

`O=C(Nc1nc(-c2ccc(Cl)cc2)cs1)c1ccc(O)c(O)c1`: the GI50 is 3770 nM and the TGI was found to be 25.5 µM.

As to `CCOC(=O)c1ccc2[nH]c(Cc3[nH]c4ccc(C(=O)OCC)cc4c3C)c(C)c2c1`, the GI50 is 5590 nM and the TGI amounted to 28.9 µM.

With `Fc1ccc(Nc2ccc3cc(OCCCN4CCOCC4)ccc3n2)cc1F`, the GI50 was 3350 nM and the TGI amounted to 19.3 µM.

As for `O=C(/C=C/c1ccc2c(c1)OCO2)c1ccccc1`, the GI50 was 13900 nM and the TGI was found to be 28 µM.

On to `CS(=O)(=O)Nc1cc(-c2ccc3ncc(C#N)c(NCc4ccccc4)c3c2)cnc1Cl`, for which the GI50 was 81.9 nM and the TGI amounted to 0.896 µM.

In the case of `C=C1C(=O)O[C@H]2[C@H]1CC/C(Cn1cc(Cn3ccc4cc(Cl)ccc43)nn1)=C\CC[C@@]1(C)O[C@@H]21`, the GI50 is 908 nM and the TGI is 2.55 µM.

As to `Cc1c(N(C(=O)c2cc(-c3cc(Cl)ccc3C(=O)N3Cc4ccccc4C[C@H]3CN3CCOCC3)n(C)c2C)c2ccc(O)cc2)cc(C#N)n1C`, the GI50 is 4700 nM and the TGI amounted to 25.2 µM.

On to `O=C1CC(N2C(=O)/C(=C/C(Cl)=C\c3ccc([N+](=O)[O-])cc3)SC2=S)C(=O)N1c1ccc(Cl)cc1` (stereo not given), for which the GI50 was 1330 nM and the TGI stood at 3.1 µM.

Take `CCN(CC)CCCN1C(=O)c2c(c(C)c3c(oc4cc(O)ccc43)c2C)C1=O`: the GI50 is 1570 nM and the TGI was determined as 3.13 µM.

`COc1ccc(C(=O)c2ccc(OC)cc2OC)cc1`: the GI50 is 1210 nM and the TGI is 3.89 µM.

On to `C[C@]12CC[C@H](O)C[C@@H]1CC[C@@H]1[C@@H]2CC[C@@]2(C)[C@H]1CC[C@@H]2[C@](C)(O)CCc1ccc(F)cc1`, for which the GI50 was 2440 nM and the TGI came to 28.2 µM.

As for `CCCCCCCCO/N=C\c1c2c(O)c3c(O)c(C)c4c(c3c1O)C(=O)C(C)(O/C=C\C(OC)C(C)C(OC(C)=O)C(C)C(O)C(C)C(O)C(C)/C=C\C=C(\C)C(=O)N2)O4` (stereo not given), the GI50 is 1370 nM and the TGI is 5.11 µM.

In the case of `O=S(=O)(NCCNc1cc(-c2cn(-c3ccccc3)nc2-c2cccc(O)c2)ccn1)c1ccc(F)cc1`, the GI50 was 1880 nM and the TGI came out at 5.33 µM.

For the compound `O=C(/C=C/C12c3ccccc3C(c3ccccc31)C1C(=O)NC(=O)C12)c1ccco1` (stereo not given), the GI50 is 2200 nM and the TGI was determined as 4.93 µM.

Consider `CCC[C@H](Nc1nc(-c2ccc(NC(=O)NCC)c(OC)c2)ncc1C)c1cccnc1`, for which the GI50 was 24.6 nM and the TGI amounted to 0.0709 µM.

Take `Cc1cc(Nc2ncc(Cl)c(Nc3ccccc3S(=O)(=O)C(C)C)n2)c(OC(C)C)cc1C1CCNCC1`: the GI50 is 1410 nM and the TGI was 3.14 µM.

`CNC(=O)c1ccc(Nc2nc(OC3CCCC3)c3c(-c4ccc5nc(C)oc5c4)c[nH]c3n2)c(OC)c1`: the GI50 was 424 nM and the TGI was 27.6 µM.

In the case of `Cc1cc(Nc2nc(N3CCOCC3)nc3ccccc23)n[nH]1`, the GI50 was 4360 nM and the TGI was 38.2 µM.

Turning to `O=C(CSc1nc2sc3c(c2c(=O)n1-c1ccccc1)CCCCC3)N/N=C/c1ccc(F)cc1`, the GI50 is 2350 nM and the TGI stood at 8.02 µM.

For the compound `O=C1CN2CCC1C/C2=C\c1ccnc2c(Cl)cccc12` (stereo not given), the GI50 is 14800 nM and the TGI came to 57.9 µM.

Regarding `O=[N+]([O-])c1ccccc1/C=C/C=C1c2ccccc2-c2ccccc21`, the GI50 is 54600 nM and the TGI was > 100 µM.

For the compound `N#C/C(=C\c1ccc(Cl)cc1)n1nnc2cc(F)c(F)cc21`, the GI50 was 1470 nM and the TGI amounted to 3.23 µM.

As for `COc1cc(N)ccc1Nc1c2ccccc2nc2ccccc12`, the GI50 is 11800 nM and the TGI was 28.8 µM.

As to `Cc1ccc(-c2nc3nc(-c4ccc(Cl)cc4)nc(N4CCCNCC4)c3o2)cc1`, the GI50 is 1780 nM and the TGI turned out to be 3.42 µM.

For the compound `CC(=O)O[C@H]1C(=O)[C@@]2(C)[C@H]([C@H](OC(=O)c3ccccc3)[C@]3(O)C[C@H](OC(=O)[C@H](OC(=O)CCC(=O)OC4CCC(S/N=C(N)/N=C(\N)N(C)C)CC4)[C@@H](NC(=O)c4ccccc4)c4ccccc4)C(C)=C1C3(C)C)[C@]1(OC(C)=O)CO[C@@H]1C[C@@H]2O` (stereo not given in full), the GI50 was 7.32 nM and the TGI was 0.0433 µM.

With `O=C1Nc2cc(OC(F)(F)F)ccc2Oc2ccc(-c3ccnc(N4CC[C@H](O)C4)c3)cc21`, the GI50 is 12.9 nM and the TGI was found to be 0.368 µM.

Take `COc1cc(C(=O)O)ccc1NC(=O)[C@@H]1N[C@@H](CC(C)(C)C)[C@](C#N)(c2ccc(Cl)cc2F)[C@H]1c1cccc(Cl)c1F`: the GI50 is 5120 nM and the TGI is 16.2 µM.

On to `Cc1c(N)nc([C@H](CC(N)=O)NC[C@H](N)C(N)=O)nc1C(=O)N[C@H](C(=O)N[C@H](C)[C@@H](O)[C@H](C)C(=O)N[C@H](C(=O)NCCc1nc(-c2nc(C(=O)NCCC[S+](C)C)cs2)cs1)[C@@H](C)O)C(OC1OC(CO)C(O)C(O)C1OC1OC(CO)C(O)C(OC(N)=O)C1O)c1cnc[nH]1` (stereo not given in full), for which the GI50 is 2480 nM and the TGI was 15.3 µM.

As for `Cc1cccc(Oc2ccc(Nc3ncnc4ccc(NC(=O)CN5CCN(C)CC5)cc34)cc2Cl)c1`, the GI50 was 448 nM and the TGI is 2.07 µM.

`CN1CCN(Cc2ccc(NC(=O)c3[nH]ncc3Nc3ccnc4ccsc34)cc2)CC1`: the GI50 is 2120 nM and the TGI was 5.54 µM.

With `C[C@]12CC[C@H]3[C@@H](CC=C4C[C@@H](O)CC[C@@]43C)[C@@H]1C/C(=C\c1cccc(OCCCn3ccnc3)c1)[C@@H]2O`, the GI50 is 7430 nM and the TGI stood at 31.3 µM.

As to `C=C1C(=O)O[C@H]2[C@H]1CC/C(COC(=O)N[C@@H](Cc1c[nH]c3ccccc13)C(=O)OC)=C\CC[C@@]1(C)O[C@@H]21`, the GI50 is 1230 nM and the TGI amounted to 3.05 µM.

Regarding `C[C@@H](Oc1cc(-c2cnn(C3CC4(CCNCC4)C3)c2)cnc1N)c1c(F)ccc(Cl)c1Cl`, the GI50 is 562 nM and the TGI was 2.12 µM.

As to `O=c1[nH]cnc2c1nnn2[C@@H]1O[C@H](CO)[C@@H](O)[C@H]1O`, the GI50 is 1540 nM and the TGI turned out to be 24.5 µM.
